Reference: BindingDB's records for doi:10.1074/jbc.M701813200 (Jacobus Pharmaceutical, 2007)

What follows are compounds tested against T1, Enoyl-ACP reductase (Plasmodium falciparum, UniProt Q9BJJ9) (assay: PfENR Enzymatic Inhibition Assay). Conditions: pH 7.9; 25 °C.
T1 sequence (Q9BJJ9 whole entry): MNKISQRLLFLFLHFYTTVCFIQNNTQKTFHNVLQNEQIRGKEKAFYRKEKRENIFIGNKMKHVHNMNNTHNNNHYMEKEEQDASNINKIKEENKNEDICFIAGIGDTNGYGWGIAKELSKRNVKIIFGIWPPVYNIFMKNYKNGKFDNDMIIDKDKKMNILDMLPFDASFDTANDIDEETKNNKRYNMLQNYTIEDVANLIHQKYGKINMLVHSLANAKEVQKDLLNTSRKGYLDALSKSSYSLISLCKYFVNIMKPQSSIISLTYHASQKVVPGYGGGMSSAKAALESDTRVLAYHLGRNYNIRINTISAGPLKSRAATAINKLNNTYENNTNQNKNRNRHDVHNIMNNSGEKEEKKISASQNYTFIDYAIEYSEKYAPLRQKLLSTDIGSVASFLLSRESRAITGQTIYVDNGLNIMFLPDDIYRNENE
Method: PfENR inhibition assays were carried out on a Cary 100 Bio Spectrophotometer or POLARstar Optima by monitoring oxidation of NADH at 340 nm. The IC50 was determined from a dose-response plot of enzyme fractional activity as a function of inhibitor concentration.

| IC50 | Compound |
| --- | --- |
| > 100 µM | O=C(O)c1ccc(Oc2ccc(Cl)cc2Cl)c(O)c1 [4-(2,4-dichlorophenoxy)-3-hydroxybenzoic acid] |
| > 100 µM | Oc1cc(-c2nn[nH]n2)ccc1Oc1ccc(Cl)cc1Cl [2-(2,4-dichlorophenoxy)-5-(2H-1,2,3,4-tetrazol-5-yl)phenol] |

| Compound | IC50 |
| --- | --- |
| Oc1cc(Cl)ccc1Oc1ccc(Cl)cc1Cl | 0.073 µM |
